Test results from patent US20250186398A1, “CONTINUOUS DOSING REGIMEN FOR TREATMENT OF A CONDITION OF THE EYE” (EYEPOINT PHARMACEUTICALS, INC., priority 2022, published 2025).

Columns and labels:
[1] = Intravitreal Pharmacokinetic Study of vorolanib insert (Example 5A); type: in vivo, Male Dutch Belted Rabbits
Experimental: An Intravitreal Pharmacokinetic Study was performed in Male Dutch Belted Rabbits. The objective of this study was to characterize the plasma and ocular tissue pharmacokinetics of a vorolanib insert following bilateral intravitreal injection on Day 1. Animals were evaluated up to 24 months following placement of the intravitreal insert.
The low dose group (1) received 3 inserts per eye for a total dose of 630 μg per eye. The high dose group (2) animals received 6 inserts per eye given in 2 separate injections (3 inserts per injection) for a total dose of 1,260 μg per eye.
Prior to each scheduled sacrifice point, one whole blood sample was collected from a targeted 2 animals per group via puncture of a marginal ear vein. Samples were tested for levels of vorolanib and its metabolite. Two animals per group were euthanized on day 1 at 6, 12, 24 and 48 hours, on days 7 and 14, and at 1, 2, 4, 6, 8, 16 and 24 months.

[2] = Intravitreal Pharmacokinetic Study of vorolanib insert, 12 months (Example 5B); type: in vivo, Dutch Belted Rabbits
Experimental: Another Intravitreal Pharmacokinetic Study was performed in Dutch Belted Rabbits. The objective of this study was to evaluate the plasma and ocular pharmacokinetics of a vorolanib insert following bilateral intravitreal injection in rabbit eyes. Animals were evaluated up to 12 months following placement of the intravitreal insert.
Dutch Belted rabbits were administered vorolanib inserts in each eye by intravitreal injection. Group 1 eyes received 1 insert containing 643 μg of vorolanib, and Group 2 eyes received 2 inserts containing 900 μg total. Blood samples were collected at 2, 7, 14, and 28 days and then once monthly for months 2-12. Inserts were recovered at 2, 7, and 14 days and then at 1, 2, 4, 6, 8, 10, and 12 months. Residual vorolanib levels were determined in all explants using high-performance liquid chromatography. The vorolanib release rate was estimated based on residual levels in the explants. Plasma and ocular tissues were separated and analyzed for vorolanib and its metabolite using liquid chromatography-mass spectrometry.

[3] = 18 month intravitreal toxicity and plasma pharmacokinetics study (Example 6); type: in vivo
Experimental: An 18 month intravitreal toxicity study for the insert was also performed in 80 Dutch Belted rabbits (40 male and 40 female). Animals were evaluated for a period of 6 and 18 months following placement of intravitreal inserts. The objective was to characterize the ocular toxicity, plasma pharmacokinetics and biodegradation of a vorolanib insert following bilateral intravitreal injection.
The tables below describe the group assignments and dose levels. For the toxicology groups, animals were sacrificed at 6 months and 18 months. For the plasma pharmacokinetic analysis, blood samples were collected at Days 1, 3, and 7 and then 1, 2, 3, 4, 5, 6, 12, 14, 16 and 18 Months.
The placebo group (1) animals received two placebo inserts by injection in each eye. The low dose group (2) animals received 2 inserts in each eye. The mid dose group (3) animals received 3 inserts in each eye given in 2 separate injections. The high dose group (4) animals received 4 inserts in each eye given in 2 separate injections (2 inserts/injection). The highest dose group (5) animals received 6 inserts in each eye given in 2 separate injections (3 inserts/injection).
At each scheduled timepoint, whole blood was collected via puncture of a marginal ear vein. Samples were analyzed for clinical pathology and plasma pharmacokinetics. Animals were euthanized according to the schedules described above. A complete gross necropsy was performed on all animals that were sacrificed or found dead during the study. Organs were weighed and tissues collected. Ocular tissues were collected for histopathology only.

[4] = tested on: Laser-Induced Choroidal Neovascularization (CNV); test: Swine (Mini-pig) Model of Laser-Induced Choroidal Neovascularization, fluorescein angiography (Example 7); type: in vivo
Experimental: Safety and efficacy of a vorolanib insert were evaluated in a Swine (Mini-pig) Model of Laser-Induced Choroidal Neovascularization (CNV). The primary objective of this study was to evaluate the long-term safety and inhibition of vascular permeability and neovascularization in a laser-induced model of choroidal neovascularization (CNV) using a vorolanib insert in swine.
On the day of lasering (Groups 1-4) animals were treated with an 810 nm diode laser delivered through an indirect ophthalmoscope. Approximately 6 single laser spots were placed between retinal veins. Both eyes underwent laser treatment according to the schedule in the table above.
On the day of intravitreal injections animals were anesthetized and the eyes were aseptically prepared. […] Animals were allowed to recover normally from the procedure. The pigs were given a topical drop of antibiotic ophthalmic solution 4-6 hours later, and then BID for 2 additional days with at least 6 hours between doses. Animals were dosed on either Day 0 immediately following laser CNV induction or 7 days prior to laser CNV induction according to the schedule in the table above.
Flourescein Angiography was done in both eyes in anesthetized animals at the timepoints as indicated in the experimental design table.

Row | Compound | dose proportionality of maximum observed concentrations in vitreous and retina/choroid ([1]; 630 vs 1,260 μg per eye) | vorolanib plasma levels ([1]; PK study, intravitreal inserts) | change in plasma levels ([1]; after 99 days) | drop in mean vorolanib concentration in ocular tissues and plasma ([2]; between months 8 and 10) | vorolanib exposure rank order ([2]; ocular tissues and plasma) | concentrations in target ocular tissues (choroid and retina) relative to IC50 for VEGFR2 ([2]; through 8 months) | vorolanib levels in the vitreous and the retina/choroid relative to IC50 for VEGFR ([3]; at the time points tested) | vorolanib plasma levels ([3]; intravitreal inserts) | adverse findings attributed to vorolanib ([3]; up to 6 inserts per eye) | efficacy in this model ([4]; 2 mg IVT) | reduction in Corrected Total Lesion Fluorescence (CTLF) from Day 7 to Day 28, rank among Groups 1-4 ([4]; Group 1, 2 mg, 50 μL/eye IVT, Day 0)
1 | Cc1[nH]c(/C=C2\C(=O)Nc3ccc(F)cc32)c(C)c1C(=O)N[C@H]1CCN(C(=O)N(C)C)C1 [vorolanib, (S,Z)—N-(1-(Dimethylcarbamoyl)pyrrolidin-3-yl)-5-((5-fluoro-2-oxoindolin-3-ylidene)methyl)-2,4-dimethyl-1H-pyrrole-3-carboxamide] | nearly dose proportional | low pg/mL range | No apparent change | 85%-99% | choroid=retina=vitreous>aqueous humor>plasma | above the IC50 for VEGFR2 | significantly above the IC50 for VEGFR | low pg/mL range | No adverse findings |  | 
2 | aflibercept: VEGF inhibitor (Regeneron), intravitreal standard of care, comparator in swine CNV model |  |  |  |  |  |  |  |  |  | normal amounts of efficacy | largest reduction
